Laboratory results: ChEMBL document CHEMBL4020788, “Synthesis, SAR and molecular docking studies of benzo[d]thiazole-hydrazones as potential antibacterial and antifungal agents” (2017)
In brackets after ≈: the same amount, converted by molar mass. Activity calls are given as the source filed them. No cut-off for these calls is given here.

The compounds below were run on Fusarium verticillioides (assay: Antifungal activity against Fusarium moniliforme at 50 ug/ml after 48 hrs by agar well diffusion method). Settings: not given.
Assay type: functional
In the case of `Cc1cccc2nc(N/N=C/c3ccc(O)cc3O)sc12`, the “diameter of the inhibition zone (DIZ)” value is reported as “inactive”.

Each compound was assayed on Aspergillus niger (assay: Antifungal activity against Aspergillus niger at 50 ug/ml after 48 hrs by agar well diffusion method). Settings: read-out: DIZ.
Assay type: functional
In the case of `Cc1cccc2nc(N/N=C/c3ccc(O)cc3O)sc12`, the zone of inhibition at 50 µg/mL is reported as 14 mm.

Each compound was assayed on Staphylococcus aureus (assay: Antibacterial activity against Staphylococcus aureus at 50 ug/ml after 24 hrs by agar well diffusion method). Settings: read-out: DIZ.
Assay type: functional
`Cc1cccc2nc(N/N=C/c3ccc(O)cc3O)sc12` gave a zone of inhibition at 50 µg/mL of 18 mm.

What follows are compounds tested on Fusarium verticillioides (assay: Antifungal activity against Fusarium moniliforme after 48 to 72 hrs by microdilution method). Settings: not given.
Assay type: functional
In the case of `Cc1cccc2nc(N/N=C/c3ccc(O)cc3O)sc12`, the MIC is reported as 25 mg/L (≈ 83.5 µM).

These compounds were tested on Escherichia coli (assay: Antibacterial activity against Escherichia coli at 25 ug/ml after 24 hrs by agar well diffusion method). Settings: read-out: DIZ.
Assay type: functional
`Cc1cccc2nc(N/N=C/c3ccc(O)cc3O)sc12` showed a zone of inhibition at 25 µg/mL of 6 mm.

The compounds below were run on Staphylococcus aureus (assay: Antibacterial activity against methicillin resistant Staphylococcus aureus MRSA090 at 25 ug/ml after 24 hrs by agar well diffusion method). Settings: MRSA090, 24 h, read-out: DIZ.
Assay type: functional
For `Cc1cccc2nc(N/N=C/c3ccc(O)cc3O)sc12`, the zone of inhibition at 25 µg/mL was 12 mm.

Each compound was assayed on Escherichia coli (assay: Antibacterial activity against Escherichia coli at 50 ug/ml after 24 hrs by agar well diffusion method). Settings: read-out: DIZ.
Assay type: functional
For `Cc1cccc2nc(N/N=C/c3ccc(O)cc3O)sc12`, the zone of inhibition at 50 µg/mL was 12 mm.

The compounds below were run on Fusarium oxysporum (assay: Antifungal activity against Fusarium oxysporum at 25 ug/ml after 48 hrs by agar well diffusion method). Settings: not given.
Assay type: functional
For `Cc1cccc2nc(N/N=C/c3ccc(O)cc3O)sc12`, the “diameter of the inhibition zone (DIZ)” value was “inactive”.

The compounds below were run on Staphylococcus aureus (assay: Antibacterial activity against methicillin resistant Staphylococcus aureus MRSA090 at 75 ug/ml after 24 hrs by agar well diffusion method). Settings: MRSA090, 24 h, read-out: DIZ.
Assay type: functional
With `Cc1cccc2nc(N/N=C/c3ccc(O)cc3O)sc12` the zone of inhibition at 75 µg/mL was 20 mm.

These compounds were tested on Klebsiella pneumoniae (assay: Antibacterial activity against Klebsiella pneumoniae at 25 ug/ml after 24 hrs by agar well diffusion method). Settings: read-out: DIZ.
Assay type: functional
`Cc1cccc2nc(N/N=C/c3ccc(O)cc3O)sc12` showed a zone of inhibition at 25 µg/mL of 12 mm.

What follows are compounds tested on Fusarium oxysporum (assay: Antifungal activity against Fusarium oxysporum at 75 ug/ml after 48 hrs by agar well diffusion method). Settings: not given.
Assay type: functional
`Cc1cccc2nc(N/N=C/c3ccc(O)cc3O)sc12` was tested, and the “diameter of the inhibition zone (DIZ)” value was “inactive”.

These compounds were tested on Fusarium verticillioides (assay: Antifungal activity against Fusarium moniliforme at 75 ug/ml after 48 hrs by agar well diffusion method). Settings: read-out: DIZ.
Assay type: functional
`Cc1cccc2nc(N/N=C/c3ccc(O)cc3O)sc12` was tested, and the zone of inhibition at 75 µg/mL was 10 mm.

What follows are compounds tested on Klebsiella pneumoniae (assay: Antibacterial activity against Klebsiella pneumoniae at 100 ug/ml after 24 hrs by agar well diffusion method). Settings: read-out: DIZ.
Assay type: functional
Work on `Cc1cccc2nc(N/N=C/c3ccc(O)cc3O)sc12` yielded a zone of inhibition at 100 µg/mL of 25 mm.

What follows are compounds tested on Fusarium oxysporum (assay: Antifungal activity against Fusarium oxysporum at 50 ug/ml after 48 hrs by agar well diffusion method). Settings: not given.
Assay type: functional
With `Cc1cccc2nc(N/N=C/c3ccc(O)cc3O)sc12` the “diameter of the inhibition zone (DIZ)” value was “inactive”.

These compounds were tested on Aspergillus niger (assay: Antifungal activity against Aspergillus niger at 100 ug/ml after 48 hrs by agar well diffusion method). Settings: read-out: DIZ.
Assay type: functional
For `Cc1cccc2nc(N/N=C/c3ccc(O)cc3O)sc12`, the zone of inhibition at 100 µg/mL was 21 mm.

These compounds were tested on Bacillus subtilis (assay: Antibacterial activity against Bacillus subtilis incubated for overnight by microdilution method). Settings: not given.
Assay type: functional
In the case of `Cc1cccc2nc(N/N=C/c3ccc(O)cc3O)sc12`, the MIC is reported as 29 mg/L (≈ 96.9 µM).

What follows are compounds tested on Staphylococcus aureus (assay: Antibacterial activity against Staphylococcus aureus at 100 ug/ml after 24 hrs by agar well diffusion method). Settings: read-out: DIZ.
Assay type: functional
With `Cc1cccc2nc(N/N=C/c3ccc(O)cc3O)sc12` the zone of inhibition at 100 µg/mL was 26 mm.

These compounds were tested on Fusarium verticillioides (assay: Antifungal activity against Fusarium moniliforme at 100 ug/ml after 48 hrs by agar well diffusion method). Settings: read-out: DIZ.
Assay type: functional
For `Cc1cccc2nc(N/N=C/c3ccc(O)cc3O)sc12`, the zone of inhibition at 100 µg/mL was 14 mm.

Each compound was assayed on Escherichia coli (assay: Antibacterial activity against Escherichia coli at 100 ug/ml after 24 hrs by agar well diffusion method). Settings: read-out: DIZ.
Assay type: functional
`Cc1cccc2nc(N/N=C/c3ccc(O)cc3O)sc12` showed a zone of inhibition at 100 µg/mL of 20 mm.

What follows are compounds tested on Bacillus subtilis (assay: Antibacterial activity against Bacillus subtilis at 100 ug/ml after 24 hrs by agar well diffusion method). Settings: read-out: DIZ.
Assay type: functional
`Cc1cccc2nc(N/N=C/c3ccc(O)cc3O)sc12` gave a zone of inhibition at 100 µg/mL of 28 mm.

The compounds below were run on Staphylococcus aureus (assay: Antibacterial activity against methicillin resistant Staphylococcus aureus MRSA090 at 50 ug/ml after 24 hrs by agar well diffusion method). Settings: MRSA090, 24 h, read-out: DIZ.
Assay type: functional
`Cc1cccc2nc(N/N=C/c3ccc(O)cc3O)sc12` showed a zone of inhibition at 50 µg/mL of 16 mm.

What follows are compounds tested on Bacillus subtilis (assay: Antibacterial activity against Bacillus subtilis at 25 ug/ml after 24 hrs by agar well diffusion method). Settings: read-out: DIZ.
Assay type: functional
`Cc1cccc2nc(N/N=C/c3ccc(O)cc3O)sc12` showed a zone of inhibition at 25 µg/mL of 12 mm.

The compounds below were run on Klebsiella pneumoniae (assay: Antibacterial activity against Klebsiella pneumoniae at 50 ug/ml after 24 hrs by agar well diffusion method). Settings: read-out: DIZ.
Assay type: functional
`Cc1cccc2nc(N/N=C/c3ccc(O)cc3O)sc12` showed a zone of inhibition at 50 µg/mL of 16 mm.

These compounds were tested on Aspergillus niger (assay: Antifungal activity against Aspergillus niger at 25 ug/ml after 48 hrs by agar well diffusion method). Settings: read-out: DIZ.
Assay type: functional
Compound `Cc1cccc2nc(N/N=C/c3ccc(O)cc3O)sc12` has a zone of inhibition at 25 µg/mL of 8 mm.

The compounds below were run on Klebsiella pneumoniae (assay: Antibacterial activity against Klebsiella pneumoniae incubated for overnight by microdilution method). Settings: not given.
Assay type: functional
`Cc1cccc2nc(N/N=C/c3ccc(O)cc3O)sc12` was tested, and the MIC was 24 mg/L (≈ 80.2 µM).

These compounds were tested on Staphylococcus aureus (assay: Antibacterial activity against methicillin resistant Staphylococcus aureus MRSA090 at 100 ug/ml after 24 hrs by agar well diffusion method). Settings: MRSA090, 24 h, read-out: DIZ.
Assay type: functional
`Cc1cccc2nc(N/N=C/c3ccc(O)cc3O)sc12` showed a zone of inhibition at 100 µg/mL of 24 mm.

These compounds were tested on Escherichia coli (assay: Antibacterial activity against Escherichia coli at 75 ug/ml after 24 hrs by agar well diffusion method). Settings: read-out: DIZ.
Assay type: functional
Work on `Cc1cccc2nc(N/N=C/c3ccc(O)cc3O)sc12` yielded a zone of inhibition at 75 µg/mL of 17 mm.

What follows are compounds tested on Bacillus subtilis (assay: Antibacterial activity against Bacillus subtilis at 50 ug/ml after 24 hrs by agar well diffusion method). Settings: read-out: DIZ.
Assay type: functional
In the case of `Cc1cccc2nc(N/N=C/c3ccc(O)cc3O)sc12`, the zone of inhibition at 50 µg/mL is reported as 18 mm.

The compounds below were run on Escherichia coli (assay: Antibacterial activity against Escherichia coli incubated for overnight by microdilution method). Settings: not given.
Assay type: functional
`Cc1cccc2nc(N/N=C/c3ccc(O)cc3O)sc12` showed an MIC of 33 mg/L (≈ 110 µM).

These compounds were tested on Staphylococcus aureus (assay: Antibacterial activity against methicillin resistant Staphylococcus aureus MRSA090 incubated for overnight by microdilution method). Settings: not given.
Assay type: functional
For `Cc1cccc2nc(N/N=C/c3ccc(O)cc3O)sc12`, the MIC was 20 mg/L (≈ 66.8 µM).

Each compound was assayed on Staphylococcus aureus (assay: Antibacterial activity against Staphylococcus aureus incubated for overnight by microdilution method). Settings: not given.
Assay type: functional
`Cc1cccc2nc(N/N=C/c3ccc(O)cc3O)sc12` gave an MIC of 24 mg/L (≈ 80.2 µM).

The compounds below were run on Bacillus subtilis (assay: Antibacterial activity against Bacillus subtilis at 75 ug/ml after 24 hrs by agar well diffusion method). Settings: read-out: DIZ.
Assay type: functional
`Cc1cccc2nc(N/N=C/c3ccc(O)cc3O)sc12` was tested, and the zone of inhibition at 75 µg/mL was 24 mm.

These compounds were tested on Fusarium oxysporum (assay: Antifungal activity against Fusarium oxysporum at 100 ug/ml after 48 hrs by agar well diffusion method). Settings: read-out: DIZ.
Assay type: functional
With `Cc1cccc2nc(N/N=C/c3ccc(O)cc3O)sc12` the zone of inhibition at 100 µg/mL was 8 mm.

What follows are compounds tested on Fusarium oxysporum (assay: Antifungal activity against Fusarium oxysporum after 48 to 72 hrs by microdilution method). Settings: not given.
Assay type: functional
`Cc1cccc2nc(N/N=C/c3ccc(O)cc3O)sc12` showed an MIC of 27 mg/L (≈ 90.2 µM).

The compounds below were run on Fusarium verticillioides (assay: Antifungal activity against Fusarium moniliforme at 25 ug/ml after 48 hrs by agar well diffusion method). Settings: not given.
Assay type: functional
For `Cc1cccc2nc(N/N=C/c3ccc(O)cc3O)sc12`, the “diameter of the inhibition zone (DIZ)” value was “inactive”.

Each compound was assayed on Aspergillus niger (assay: Antifungal activity against Aspergillus niger at 75 ug/ml after 48 hrs by agar well diffusion method). Settings: read-out: DIZ.
Assay type: functional
Work on `Cc1cccc2nc(N/N=C/c3ccc(O)cc3O)sc12` yielded a zone of inhibition at 75 µg/mL of 17 mm.

What follows are compounds tested on Staphylococcus aureus (assay: Antibacterial activity against Staphylococcus aureus at 25 ug/ml after 24 hrs by agar well diffusion method). Settings: read-out: DIZ.
Assay type: functional
`Cc1cccc2nc(N/N=C/c3ccc(O)cc3O)sc12` showed a zone of inhibition at 25 µg/mL of 14 mm.

The compounds below were run on Staphylococcus aureus (assay: Antibacterial activity against Staphylococcus aureus at 75 ug/ml after 24 hrs by agar well diffusion method). Settings: read-out: DIZ.
Assay type: functional
`Cc1cccc2nc(N/N=C/c3ccc(O)cc3O)sc12` showed a zone of inhibition at 75 µg/mL of 23 mm.

These compounds were tested on Klebsiella pneumoniae (assay: Antibacterial activity against Klebsiella pneumoniae at 75 ug/ml after 24 hrs by agar well diffusion method). Settings: read-out: DIZ.
Assay type: functional
In the case of `Cc1cccc2nc(N/N=C/c3ccc(O)cc3O)sc12`, the zone of inhibition at 75 µg/mL is reported as 21 mm.
